This is an account of results in PubChem BioAssay (NCI).

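The compound was tested at five concentrations on cells cultured in 96-well plates, with a 48-hour exposure period. Abbreviation: GI50, concentration required for 50% inhibition of growth. Definition used: TGI = concentration required for complete inhibition of growth.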

Assay in all cases: NCI tumour cell line growth inhibition, 48 h
The test system of experiment [1] is HOP-18 NSCLC.
For experiment [2], the system named is RXF-631 renal.
The test system of experiment [3] is P388/ADR leukemia.
Experiment [4] concerns SN12K1 renal.
Experiment [5] has as its system P388 leukemia.

For `O=C1c2ccccc2C(=O)N1Cc1ccccc1-c1c2nc(c(-c3ccccc3CN3C(=O)c4ccccc4C3=O)c3ccc([nH]3)c(-c3ccccc3CN3C(=O)c4ccccc4C3=O)c3nc(c(-c4ccccc4CN4C(=O)c5ccccc5C4=O)c4ccc1[nH]4)C=C3)C=C2`, the TGI in experiment [1] was > 100 µM.

Regarding `NC1=NS(=O)(=O)Nc2nc(-c3ccc(Cl)cc3)c(-c3ccc(Cl)cc3)nc21`, the TGI in experiment [1] and in experiment [2] was > 100 µM throughout.

As for `NC1=NS(=O)(=O)Nc2nc(-c3ccc([N+](=O)[O-])cc3)[nH]c21`, the TGI in experiment [1] was > 100 µM.

Take `NC1=NS(=O)(=O)Nc2nc(-c3ccc([N+](=O)[O-])o3)[nH]c21`: in experiment [1], the TGI worked out at 30.3 µM.

As for `COc1cc(Nc2c3ccccc3nc3ccccc23)ccc1NS(C)(=O)=O`, in experiment [1], the TGI is 26.3 µM.

For `Cc1[nH]c(=O)[nH]c(=O)c1/C=C/C(=O)O`, the TGI in experiment [3], in experiment [1], in experiment [4] and in experiment [5] was > 1000 µM each time. In addition, in experiment [5], the GI50 was > 1000 µM.

In the case of `Nc1ccc2[nH]c3c(-c4ccccc4)nccc3c2c1`, the TGI in experiment [3] is > 100 µM; in experiment [1] it was > 100 µM; in experiment [4], > 100 µM; in experiment [5], 46.5 µM.

As for `O=C1c2ccccc2CCCCCCCCCCC12OCCCO2`, the TGI in experiment [1] was > 100 µM.

As to `O=C(NC(Cc1ccc(I)cc1)C(=O)O)c1ccc(Br)cc1` (stereo not given), the TGI in experiment [3] is > 31.6 µM; in experiment [1], > 100 µM; in experiment [4], > 100 µM; in experiment [5], > 100 µM.
